Results as given in ChEMBL document CHEMBL1649467, “Impact of human serum albumin on oritavancin in vitro activity against enterococci” (Antimicrob Agents Chemother, 2009).
Values after ≈ are worked out from the molar mass of the structure shown.

Columns and labels:
[1] = test system: Enterococcus faecalis; experiment: Bactericidal activity against vancomycin-resistant Enterococcus faecalis 1058946 expressing vanA gene assessed as change in bacterial count at 64 ug/ml by time-kill assay; format: functional
[2] = test system: Enterococcus faecium; experiment: Bactericidal activity against vancomycin-resistant Enterococcus faecium ATCC 51559 expressing vanA gene assessed as change in bacterial count at 4 ug/ml by time-kill assay; format: functional
[3] = test system: Enterococcus faecalis; experiment: Antimicrobial activity against vancomycin-susceptible Enterococcus faecalis ATCC 29212 by broth dilution method in presence of 4% HSA; format: functional
[4] = test system: Enterococcus faecium; experiment: Bactericidal activity against vancomycin-resistant Enterococcus faecium 1059060 expressing vanA gene assessed as change in bacterial count at 64 ug/ml by time-kill assay; format: functional
[5] = Cmax in healthy human male at 4 mg/kg, iv every 24 hrs by LC/MS/MS analysis; format: ADME, organism-based; parameters: dose 4 mg/kg, route intravenous; conditions: in vivo
[6] = test system: Enterococcus faecalis; experiment: Antimicrobial activity against vancomycin-resistant Enterococcus faecalis ATCC 51299 by broth dilution method in presence of 4% HSA; format: functional
[7] = test system: Enterococcus faecium; experiment: Bactericidal activity against vancomycin-resistant Enterococcus faecium 1059060 expressing vanA gene assessed as change in bacterial count at 4 ug/ml by time-kill assay; format: functional
[8] = Free fraction in healthy human male at 4 mg/kg, iv every 24 hrs by LC/MS/MS analysis; format: ADME, organism-based; parameters: dose 4 mg/kg, route intravenous; conditions: in vivo
[9] = test system: Enterococcus faecalis; experiment: Selectivity ratio of MIC for Enterococcus faecalis 1058946 in presence of 4% HSA to MIC for Enterococcus faecalis 1058946; format: functional
[10] = test system: Enterococcus faecium; experiment: Antimicrobial activity against vancomycin-resistant Enterococcus faecium ATCC 51559 by broth dilution method; format: functional
[11] = test system: Enterococcus faecium; experiment: Bactericidal activity against vancomycin-resistant Enterococcus faecium 1119175 expressing vanB gene assessed as change in bacterial count at 4 ug/ml by time-kill assay; format: functional
[12] = test system: Enterococcus faecium; experiment: Antimicrobial activity against vancomycin-resistant Enterococcus faecium 1059060 by broth dilution method in presence of 4% HSA; format: functional
[13] = test system: Enterococcus faecium; experiment: Selectivity ratio of MIC for Enterococcus faecium ATCC 51559 in presence of 4% HSA to MIC for Enterococcus faecium ATCC 51559; format: functional
[14] = test system: Enterococcus faecium; experiment: Bactericidal activity against vancomycin-resistant Enterococcus faecium ATCC 51559 expressing vanA gene assessed as change in bacterial count at 64 ug/ml by time-kill assay; format: functional
[15] = test system: Enterococcus faecium; experiment: Antimicrobial activity against vancomycin-resistant Enterococcus faecium 1059060 by broth dilution method; format: functional
[16] = test system: Enterococcus faecium; experiment: Bactericidal activity against vancomycin-resistant Enterococcus faecium 1119175 expressing vanB gene assessed as change in bacterial count at 64 ug/ml by time-kill assay; format: functional
[17] = test system: Enterococcus faecalis; experiment: Bactericidal activity against vancomycin-susceptible Enterococcus faecalis ATCC 29212 assessed as change in bacterial count at 64 ug/ml by time-kill assay; format: functional
[18] = test system: Enterococcus faecalis; experiment: Antimicrobial activity against vancomycin-resistant Enterococcus faecalis ATCC 51299 by broth dilution method; format: functional
[19] = test system: Enterococcus faecalis; experiment: Bactericidal activity against vancomycin-resistant Enterococcus faecalis ATCC 51299 expressing vanB gene assessed as change in bacterial count at 4 ug/ml by time-kill assay; format: functional
[20] = test system: Enterococcus faecalis; experiment: Selectivity ratio of MIC for Enterococcus faecalis ATCC 51299 in presence of 4% HSA to MIC for Enterococcus faecalis 51299; format: functional
[21] = test system: Enterococcus faecalis; experiment: Antimicrobial activity against vancomycin-resistant Enterococcus faecalis 1058946 by broth dilution method in presence of 4% HSA; format: functional
[22] = test system: Enterococcus faecium; experiment: Selectivity ratio of MIC for Enterococcus faecium 1119175 in presence of 4% HSA to MIC for Enterococcus faecium 1119175; format: functional
[23] = test system: Enterococcus faecalis; experiment: Selectivity ratio of MIC for Enterococcus faecalis ATCC 29212 in presence of 4% HSA to MIC for Enterococcus faecalis ATCC 29212; format: functional
[24] = test system: Enterococcus faecium; experiment: Antimicrobial activity against vancomycin-resistant Enterococcus faecium 1119175 by broth dilution method in presence of 4% HSA; format: functional
[25] = test system: Enterococcus faecalis; experiment: Bactericidal activity against vancomycin-resistant Enterococcus faecalis 1058946 expressing vanA gene assessed as change in bacterial count at 4 ug/ml by time-kill assay; format: functional
[26] = test system: Enterococcus faecium; experiment: Antimicrobial activity against vancomycin-resistant Enterococcus faecium ATCC 51559 by broth dilution method in presence of 4% HAS; format: functional
[27] = test system: Enterococcus faecium; experiment: Selectivity ratio of MIC for Enterococcus faecium 1059060 in presence of 4% HSA to MIC for Enterococcus faecium 1059060; format: functional
[28] = test system: Enterococcus faecalis; experiment: Antimicrobial activity against vancomycin-resistant Enterococcus faecalis 1058946 by broth dilution method; format: functional
[29] = test system: Enterococcus faecalis; experiment: Bactericidal activity against vancomycin-susceptible Enterococcus faecalis ATCC 29212 assessed as change in bacterial count at 4 ug/ml by time-kill assay; format: functional
[30] = test system: Enterococcus faecalis; experiment: Bactericidal activity against vancomycin-resistant Enterococcus faecalis ATCC 51299 expressing vanB gene assessed as change in bacterial count at 64 ug/ml by time-kill assay; format: functional
[31] = test system: Enterococcus faecalis; experiment: Antimicrobial activity against vancomycin-susceptible Enterococcus faecalis ATCC 29212 by broth dilution method; format: functional
[32] = test system: Enterococcus faecium; experiment: Antimicrobial activity against vancomycin-resistant Enterococcus faecium 1119175 by broth dilution method; format: functional

`CCCCCCCCCC(=O)N[C@@H](Cc1c[nH]c2ccccc12)C(=O)N[C@H](CC(N)=O)C(=O)N[C@@H](CC(=O)O)C(=O)N[C@@H]1C(=O)NCC(=O)N[C@@H](CCCN)C(=O)N[C@@H](CC(=O)O)C(=O)N[C@H](C)C(=O)N[C@@H](CC(=O)O)C(=O)NCC(=O)N[C@H](CO)C(=O)N[C@@H]([C@H](C)CC(=O)O)C(=O)N[C@@H](CC(=O)c2ccccc2N)C(=O)O[C@@H]1C` showed a log10CFU/ml [1] of -0.4, a log10CFU/ml [2] of 2.4 and an MIC [3] of 32 µg/mL. It also gave a log10CFU/ml [4] of -0.78, a Cmax [5] of 64 µg/mL and an MIC [6] of 32 µg/mL. For the same molecule, the log10CFU/ml [7] was -0.54, the fraction unbound at 24 h [8] was 0.08 and the Ratio [9] was 8. For the same molecule, the MIC [10] was 2 µg/mL (≈ 1.23 µM), the log10CFU/ml [11] was 2.3 and the MIC [12] was 8 µg/mL. For the same molecule, the Ratio [13] was 16, the log10CFU/ml [14] was 1.4 and the MIC [15] was 1 µg/mL (≈ 0.617 µM). It also gave a log10CFU/ml [16] of 1.5, a log10CFU/ml [17] of 0.26 and an MIC [18] of 2 µg/mL (≈ 1.23 µM). For the same molecule, the log10CFU/ml [19] was 2.3, the Ratio [20] was 16 and the MIC [21] was 16 µg/mL. For the same molecule, the Ratio [22] was 16, the Ratio [23] was 16 and the MIC [24] was 64 µg/mL. It also gave a log10CFU/ml [25] of 2.5, an MIC [26] of 32 µg/mL and a Ratio [27] of 8. The MIC [28] was 2 µg/mL (≈ 1.23 µM), the log10CFU/ml [29] was 1.9 and the log10CFU/ml [30] was 1.4. The MIC [31] was 2 µg/mL (≈ 1.23 µM) and the MIC [32] was 4 µg/mL (≈ 2.47 µM).
